PubChem BioAssay (NCI)
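Results reflect a 48-hour exposure of cells in 96-well plates to compound at five concentrations. TGI marks complete inhibition of growth.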

How the values were obtained:
Experiment in all cases: NCI anticancer screen, dose series, 48 h
UACC-257 melanoma = tested on: UACC-257 melanoma
NCI-H226 lung = tested on: NCI-H226 lung
MDA-N = tested on: MDA-N
TK-10 renal = tested on: TK-10 renal
IGROV1 ovarian = tested on: IGROV1 ovarian
NCI/ADR-RES ovarian = tested on: NCI/ADR-RES ovarian
MOLT-4 leukemia = tested on: MOLT-4 leukemia
HOP-92 NSCLC = tested on: HOP-92 NSCLC
SK-MEL-28 melanoma = tested on: SK-MEL-28 melanoma
BT-549 breast = tested on: BT-549 breast
UO-31 renal = tested on: UO-31 renal
PC-3 prostate = tested on: PC-3 prostate
OVCAR-4 ovarian = tested on: OVCAR-4 ovarian
SN12C renal = tested on: SN12C renal
NCI-H460 lung = tested on: NCI-H460 lung
A498 renal = tested on: A498 renal
SNB-75 CNS = tested on: SNB-75 CNS
OVCAR-3 ovarian = tested on: OVCAR-3 ovarian
HCT-15 colon = tested on: HCT-15 colon
K-562 leukemia = tested on: K-562 leukemia
RXF 393 renal = tested on: RXF 393 renal
HCT-116 colon = tested on: HCT-116 colon
NCI-H522 lung = tested on: NCI-H522 lung
HS 578T breast = tested on: HS 578T breast
MALME-3M melanoma = tested on: MALME-3M melanoma
OVCAR-5 ovarian = tested on: OVCAR-5 ovarian
OVCAR-8 ovarian = tested on: OVCAR-8 ovarian
SF-295 CNS = tested on: SF-295 CNS
MCF7 breast = tested on: MCF7 breast
SW-620 colon = tested on: SW-620 colon
EKVX NSCLC = tested on: EKVX NSCLC
SK-MEL-2 melanoma = tested on: SK-MEL-2 melanoma
RPMI-8226 leukemia = tested on: RPMI-8226 leukemia
MDA-MB-435 = tested on: MDA-MB-435
DU-145 prostate = tested on: DU-145 prostate
M14 melanoma = tested on: M14 melanoma
UACC-62 melanoma = tested on: UACC-62 melanoma
CAKI-1 renal = tested on: CAKI-1 renal
786-0 renal = tested on: 786-0 renal
SK-MEL-5 melanoma = tested on: SK-MEL-5 melanoma
SR leukemia = tested on: SR leukemia
SK-OV-3 ovarian = tested on: SK-OV-3 ovarian
T-47D breast = tested on: T-47D breast
LOX IMVI melanoma = tested on: LOX IMVI melanoma
NCI-H23 lung = tested on: NCI-H23 lung
HCC-2998 colon = tested on: HCC-2998 colon
SF-268 CNS = tested on: SF-268 CNS
HT29 colon = tested on: HT29 colon
COLO 205 colon = tested on: COLO 205 colon
A549 NSCLC = tested on: A549 NSCLC
U251 CNS = tested on: U251 CNS
SF-539 CNS = tested on: SF-539 CNS
KM12 colon = tested on: KM12 colon
SNB-19 CNS = tested on: SNB-19 CNS
MDA-MB-231 breast = tested on: MDA-MB-231 breast
ACHN renal = tested on: ACHN renal
CCRF-CEM leukemia = tested on: CCRF-CEM leukemia
HOP-62 NSCLC = tested on: HOP-62 NSCLC
HL-60(TB) leukemia = tested on: HL-60(TB) leukemia

With CC[C@@]1(O)C(=O)OCc2c1cc1n(c2=O)Cc2c-1nc1ccccc1c2/C=N/NC(=O)C[N+](C)(C)C the TGI (UACC-257 melanoma) was > 100 µM, the TGI (NCI-H226 lung) was 31.8 µM and the TGI (MDA-N) was > 100 µM. For the same compound, the TGI (TK-10 renal) was > 100 µM, the TGI (IGROV1 ovarian) was > 100 µM and the TGI (NCI/ADR-RES ovarian) was > 62.3 µM. For the same compound, the TGI (MOLT-4 leukemia) was 16.3 µM, the TGI (HOP-92 NSCLC) was > 49.3 µM and the TGI (SK-MEL-28 melanoma) was > 100 µM. The TGI (BT-549 breast) was > 100 µM, the TGI (UO-31 renal) was 9.72 µM and the TGI (PC-3 prostate) was > 100 µM. For the same compound, the TGI (OVCAR-4 ovarian) was > 100 µM, the TGI (SN12C renal) was > 100 µM and the TGI (NCI-H460 lung) was 21.5 µM. For the same compound, the TGI (A498 renal) was > 65.1 µM, the TGI (SNB-75 CNS) was 9.74 µM and the TGI (OVCAR-3 ovarian) was > 100 µM. For the same compound, the TGI (HCT-15 colon) was > 100 µM, the TGI (K-562 leukemia) was > 100 µM and the TGI (RXF 393 renal) was 11.7 µM. For the same compound, the TGI (HCT-116 colon) was > 100 µM, the TGI (NCI-H522 lung) was > 100 µM and the TGI (HS 578T breast) was > 100 µM. The TGI (MALME-3M melanoma) was > 100 µM, the TGI (OVCAR-5 ovarian) was > 100 µM and the TGI (OVCAR-8 ovarian) was > 100 µM. The TGI (SF-295 CNS) was > 33.3 µM, the TGI (MCF7 breast) was > 100 µM and the TGI (SW-620 colon) was > 100 µM. For the same compound, the TGI (EKVX NSCLC) was > 100 µM, the TGI (SK-MEL-2 melanoma) was > 100 µM and the TGI (RPMI-8226 leukemia) was > 100 µM. For the same compound, the TGI (MDA-MB-435) was > 100 µM, the TGI (DU-145 prostate) was 22 µM and the TGI (M14 melanoma) was 20.5 µM. For the same compound, the TGI (UACC-62 melanoma) was 3.66 µM, the TGI (CAKI-1 renal) was > 100 µM and the TGI (786-0 renal) was > 55.7 µM. The TGI (SK-MEL-5 melanoma) was 7.98 µM, the TGI (SR leukemia) was 0.922 µM and the TGI (SK-OV-3 ovarian) was > 100 µM. The TGI (T-47D breast) was 30.4 µM, the TGI (LOX IMVI melanoma) was > 37.6 µM and the TGI (NCI-H23 lung) was 6.27 µM. For the same compound, the TGI (HCC-2998 colon) was > 100 µM, the TGI (SF-268 CNS) was > 63 µM and the TGI (HT29 colon) was > 100 µM. The TGI (COLO 205 colon) was > 100 µM, the TGI (A549 NSCLC) was > 100 µM and the TGI (U251 CNS) was > 35.8 µM. For the same compound, the TGI (SF-539 CNS) was 2.61 µM, the TGI (KM12 colon) was > 100 µM and the TGI (SNB-19 CNS) was > 94.2 µM. For the same compound, the TGI (MDA-MB-231 breast) was > 100 µM.

CN(C)/C=N/S(=O)(=O)c1nn2c(C=O)c(-c3ccccc3)nc2s1 was tested, and the TGI (UACC-257 melanoma) was > 63.3 µM, the TGI (NCI-H226 lung) was > 57.4 µM and the TGI (MDA-N) was 52.5 µM. For the same compound, the TGI (TK-10 renal) was > 77.1 µM, the TGI (ACHN renal) was 21.1 µM and the TGI (NCI/ADR-RES ovarian) was > 76.6 µM. For the same compound, the TGI (MOLT-4 leukemia) was 32.1 µM, the TGI (HOP-92 NSCLC) was > 100 µM and the TGI (SK-MEL-28 melanoma) was 29.8 µM. The TGI (BT-549 breast) was > 26.4 µM, the TGI (CCRF-CEM leukemia) was 9.8 µM and the TGI (UO-31 renal) was 19.5 µM. For the same compound, the TGI (PC-3 prostate) was > 89 µM, the TGI (OVCAR-4 ovarian) was > 89.9 µM and the TGI (SN12C renal) was 49.7 µM. The TGI (NCI-H460 lung) was > 51.4 µM, the TGI (A498 renal) was > 100 µM and the TGI (SNB-75 CNS) was > 100 µM. For the same compound, the TGI (OVCAR-3 ovarian) was 24.1 µM, the TGI (HCT-15 colon) was 45.6 µM and the TGI (K-562 leukemia) was > 61.7 µM. It also gave a TGI (RXF 393 renal) of 49 µM, a TGI (HCT-116 colon) of 13.1 µM and a TGI (NCI-H522 lung) of 15.8 µM. For the same compound, the TGI (HS 578T breast) was > 100 µM, the TGI (MALME-3M melanoma) was 35.6 µM and the TGI (OVCAR-5 ovarian) was > 100 µM. The TGI (OVCAR-8 ovarian) was > 53.4 µM, the TGI (SF-295 CNS) was > 100 µM and the TGI (MCF7 breast) was > 100 µM. For the same compound, the TGI (SW-620 colon) was 20.2 µM, the TGI (EKVX NSCLC) was > 100 µM and the TGI (SK-MEL-2 melanoma) was > 100 µM. The TGI (RPMI-8226 leukemia) was 42.9 µM, the TGI (MDA-MB-435) was > 100 µM and the TGI (DU-145 prostate) was > 100 µM. The TGI (M14 melanoma) was 14.8 µM, the TGI (UACC-62 melanoma) was 54.4 µM and the TGI (CAKI-1 renal) was 8.68 µM. It also gave a TGI (786-0 renal) of 21.3 µM, a TGI (SK-MEL-5 melanoma) of 27.9 µM and a TGI (SR leukemia) of 21.3 µM. The TGI (SK-OV-3 ovarian) was > 100 µM, the TGI (T-47D breast) was 61.4 µM and the TGI (LOX IMVI melanoma) was > 89 µM. For the same compound, the TGI (NCI-H23 lung) was > 83 µM, the TGI (HCC-2998 colon) was > 56.5 µM and the TGI (SF-268 CNS) was > 100 µM. For the same compound, the TGI (HT29 colon) was 4.58 µM, the TGI (COLO 205 colon) was > 38.6 µM and the TGI (A549 NSCLC) was > 82.4 µM. The TGI (U251 CNS) was > 31.6 µM, the TGI (SF-539 CNS) was > 100 µM and the TGI (KM12 colon) was > 79.7 µM. The TGI (SNB-19 CNS) was > 100 µM, the TGI (MDA-MB-231 breast) was > 74.9 µM and the TGI (HOP-62 NSCLC) was > 100 µM.

In the case of COc1cccc(-c2nnc3c(-c4ccccc4)nc4ccccc4n23)c1, the TGI (UACC-257 melanoma) is reported as > 100 µM, the TGI (NCI-H226 lung) is reported as > 100 µM and the TGI (MDA-N) is reported as 14.2 µM. For the same compound, the TGI (TK-10 renal) was > 100 µM, the TGI (ACHN renal) was > 100 µM and the TGI (IGROV1 ovarian) was > 100 µM. The TGI (NCI/ADR-RES ovarian) was > 100 µM, the TGI (MOLT-4 leukemia) was > 63.8 µM and the TGI (HOP-92 NSCLC) was > 100 µM. The TGI (SK-MEL-28 melanoma) was > 100 µM, the TGI (BT-549 breast) was > 100 µM and the TGI (CCRF-CEM leukemia) was 39.1 µM. For the same compound, the TGI (UO-31 renal) was > 100 µM, the TGI (PC-3 prostate) was > 100 µM and the TGI (OVCAR-4 ovarian) was > 100 µM. The TGI (SN12C renal) was > 100 µM, the TGI (NCI-H460 lung) was 98.7 µM and the TGI (A498 renal) was 93.4 µM. The TGI (OVCAR-3 ovarian) was > 100 µM, the TGI (HCT-15 colon) was > 100 µM and the TGI (K-562 leukemia) was > 56.5 µM. The TGI (RXF 393 renal) was 94.7 µM, the TGI (HCT-116 colon) was > 100 µM and the TGI (NCI-H522 lung) was 22.7 µM. The TGI (HS 578T breast) was > 100 µM, the TGI (HL-60(TB) leukemia) was 34 µM and the TGI (MALME-3M melanoma) was > 83.7 µM. For the same compound, the TGI (OVCAR-5 ovarian) was > 100 µM, the TGI (OVCAR-8 ovarian) was > 100 µM and the TGI (SF-295 CNS) was > 100 µM. The TGI (MCF7 breast) was > 100 µM, the TGI (SW-620 colon) was > 100 µM and the TGI (EKVX NSCLC) was > 100 µM. The TGI (SK-MEL-2 melanoma) was 44.3 µM, the TGI (RPMI-8226 leukemia) was 26.4 µM and the TGI (MDA-MB-435) was 8.62 µM. The TGI (DU-145 prostate) was > 100 µM, the TGI (M14 melanoma) was > 100 µM and the TGI (UACC-62 melanoma) was > 100 µM. The TGI (CAKI-1 renal) was > 86.6 µM, the TGI (786-0 renal) was > 100 µM and the TGI (SK-MEL-5 melanoma) was 77.6 µM. For the same compound, the TGI (SR leukemia) was > 54.8 µM, the TGI (SK-OV-3 ovarian) was > 100 µM and the TGI (T-47D breast) was 17.3 µM. For the same compound, the TGI (LOX IMVI melanoma) was > 100 µM, the TGI (NCI-H23 lung) was > 100 µM and the TGI (HCC-2998 colon) was 62.7 µM. For the same compound, the TGI (SF-268 CNS) was > 100 µM, the TGI (HT29 colon) was > 100 µM and the TGI (COLO 205 colon) was > 100 µM. For the same compound, the TGI (A549 NSCLC) was > 100 µM, the TGI (U251 CNS) was > 100 µM and the TGI (SF-539 CNS) was > 100 µM. For the same compound, the TGI (KM12 colon) was > 43.7 µM, the TGI (SNB-19 CNS) was > 100 µM and the TGI (MDA-MB-231 breast) was > 100 µM. The TGI (HOP-62 NSCLC) was > 100 µM.
